# Laboratory results reported in article PMC9090415, “Discovery of small molecule inhibitors of Plasmodium falciparum apicoplast DNA polymerase” (Journal of Enzyme Inhibition and Medicinal Chemistry, 2022).
# Target: P. falciparum apicoplast DNA polymerase (Pf-apPOL) (Plasmodium falciparum, UniProt Q8ILY1)
# Assay: Fluorescence-based high-throughput DNA polymerase assay (molecular beacon), primary screen and dose-response;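 for % inhibition ApPOL 90': test concentration in µM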;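 for % inhibition apPOL 180': test concentration in µM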
# Type: biochemical
# Method in brief: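 Single-point screening used 10 µM compound with 20 nM polymerase, 20 nM hairpin substrate and 6 µM dNTPs for 90 min at 25 °C. Confirmatory titrations (2.5–80 µM) followed fluorescence at three times, and IC50 was derived from a fit including a cooperativity term n.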
# [1] = DRC-2, 180', concentration 20 (unit not given)
# P. falciparum apicoplast DNA polymerase (Pf-apPOL), sequence (Q8ILY1 entry or part of it): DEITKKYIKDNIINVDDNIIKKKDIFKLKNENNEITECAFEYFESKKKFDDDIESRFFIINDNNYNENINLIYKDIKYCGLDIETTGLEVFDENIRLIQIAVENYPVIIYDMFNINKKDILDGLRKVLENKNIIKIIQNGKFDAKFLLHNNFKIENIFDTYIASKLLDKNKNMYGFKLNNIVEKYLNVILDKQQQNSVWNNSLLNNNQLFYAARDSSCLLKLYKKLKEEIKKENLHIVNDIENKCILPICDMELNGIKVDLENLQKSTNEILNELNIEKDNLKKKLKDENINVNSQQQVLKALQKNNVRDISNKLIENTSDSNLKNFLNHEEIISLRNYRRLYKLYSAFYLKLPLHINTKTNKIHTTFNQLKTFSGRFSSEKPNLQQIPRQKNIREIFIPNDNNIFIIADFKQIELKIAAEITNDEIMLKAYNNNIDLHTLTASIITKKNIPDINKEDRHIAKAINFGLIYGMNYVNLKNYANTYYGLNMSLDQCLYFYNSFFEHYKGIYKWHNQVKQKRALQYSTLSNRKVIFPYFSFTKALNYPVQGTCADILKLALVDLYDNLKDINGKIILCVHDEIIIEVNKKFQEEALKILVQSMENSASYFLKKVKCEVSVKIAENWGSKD
compound,measurement,setting,value
CCCCCCCCCCCCCCCCCC(=O)CCN(C)C [KU0271928],% inhibition Apo pol 10',"DRC-1, concentration 2.5",4.376%
same,% inhibition Apo pol 10',"DRC-1, concentration 5",8.002%
same,% inhibition Apo pol 10',"DRC-1, concentration 10",14.7164%
same,% inhibition Apo pol 10',"DRC-1, concentration 20",22.8957%
same,% inhibition Apo pol 10',"DRC-1, concentration 40",29.808%
same,% inhibition Apo pol 10',"DRC-1, concentration 80",46.1524%
same,% inhibition Apol 90',"DRC-1, 90', concentration 2.5",3.047%
same,% inhibition Apol 90',"DRC-1, 90', concentration 5",4.9355%
same,% inhibition Apol 90',"DRC-1, 90', concentration 10",15.0466%
same,% inhibition Apol 90',"DRC-1, 90', concentration 20",24.954%
same,% inhibition Apol 90',"DRC-1, 90', concentration 40",42.2957%
same,% inhibition Apol 90',"DRC-1, 90', concentration 80",71.469%
same,% inhibition apPOL 180',"DRC-1, 180', concentration 2.5",2.105%
same,% inhibition apPOL 180',"DRC-1, 180', concentration 5",0.02519%
same,% inhibition apPOL 180',"DRC-1, 180', concentration 10",10.3787%
same,% inhibition apPOL 180',"DRC-1, 180', concentration 20",23.1469%
same,% inhibition apPOL 180',"DRC-1, 180', concentration 40",44.4373%
same,% inhibition apPOL 180',"DRC-1, 180', concentration 80",80.1406%
same,% inhibition Apol 40',"DRC-2, 40', concentration 5 (unit not given)",4%
same,% inhibition Apol 40',"DRC-2, 40', concentration 20 (unit not given)",13%
same,% inhibition apPOL 180',"DRC-2, 180', concentration 5 (unit not given)",4%
same,% inhibition apPOL 180',[1],13%
same,% inhibition Apo pol 5',"DRC-2, 5', concentration 2.5",0.736%
same,% inhibition Apo pol 5',"DRC-2, 5', concentration 5",1.37%
same,% inhibition Apo pol 5',"DRC-2, 5', concentration 10",2.68%
same,% inhibition Apo pol 5',"DRC-2, 5', concentration 20",5.52%
same,% inhibition Apo pol 5',"DRC-2, 5', concentration 40",18%
same,% inhibition Apo pol 5',"DRC-2, 5', concentration 80",37%
same,% inhibition Apol 40',"DRC-2, 40', concentration 2.5",2.22%
same,% inhibition Apol 40',"DRC-2, 40', concentration 5",4%
same,% inhibition Apol 40',"DRC-2, 40', concentration 10",4.59%
same,% inhibition Apol 40',"DRC-2, 40', concentration 20",13%
same,% inhibition Apol 40',"DRC-2, 40', concentration 40",28%
same,% inhibition Apol 40',"DRC-2, 40', concentration 80",61%
same,% inhibition ApPOL 90',"DRC-2, 90', concentration 2.5",1.86%
same,% inhibition ApPOL 90',"DRC-2, 90', concentration 5",3.32%
same,% inhibition ApPOL 90',"DRC-2, 90', concentration 10",2.69%
same,% inhibition ApPOL 90',"DRC-2, 90', concentration 20",12%
same,% inhibition ApPOL 90',"DRC-2, 90', concentration 40",30%
same,% inhibition ApPOL 90',"DRC-2, 90', concentration 80",67%
same,% inhibition apPOL 180',"DRC-2, 180', concentration 2.5",1.53%
same,% inhibition apPOL 180',"DRC-2, 180', concentration 5",4%
same,% inhibition apPOL 180',"DRC-2, 180', concentration 10",2.45%
same,% inhibition apPOL 180',"DRC-2, 180', concentration 20",13%
same,% inhibition apPOL 180',"DRC-2, 180', concentration 40",31%
same,% inhibition apPOL 180',"DRC-2, 180', concentration 80",73%
same,DNA Pol,"primary screen value of the 186 hits, unit not given, 90 min, 10 µM",46
same,DNA Pol,"primary screen value, head ""DNA Pol"", unit not given, 90 min, 10 µM",46
COc1cc(NC(=O)c2ccccc2)c(OC)cc1NC(=O)Cc1cccs1 [KU0032113],% inhibition Apo pol 10',"DRC-1, concentration 2.5",6.129%
same,% inhibition Apo pol 10',"DRC-1, concentration 5",17.2801%
same,% inhibition Apo pol 10',"DRC-1, concentration 10",38.185%
same,% inhibition Apo pol 10',"DRC-1, concentration 20",61.3818%
same,% inhibition Apo pol 10',"DRC-1, concentration 40",79.6269%
same,% inhibition Apo pol 10',"DRC-1, concentration 80",80.874%
same,% inhibition Apol 90',"DRC-1, 90', concentration 2.5",2.9%
same,% inhibition Apol 90',"DRC-1, 90', concentration 5",9.442%
same,% inhibition Apol 90',"DRC-1, 90', concentration 10",29.583%
same,% inhibition Apol 90',"DRC-1, 90', concentration 20",53.4832%
same,% inhibition Apol 90',"DRC-1, 90', concentration 40",79.1036%
same,% inhibition Apol 90',"DRC-1, 90', concentration 80",83.2869%
same,% inhibition apPOL 180',"DRC-1, 180', concentration 2.5",0.5437%
same,% inhibition apPOL 180',"DRC-1, 180', concentration 5",4.503%
same,% inhibition apPOL 180',"DRC-1, 180', concentration 10",19.4766%
same,% inhibition apPOL 180',"DRC-1, 180', concentration 20",39.9313%
same,% inhibition apPOL 180',"DRC-1, 180', concentration 40",73.4883%
same,% inhibition apPOL 180',"DRC-1, 180', concentration 80",81.431%
same,% inhibition Apo pol 5',"DRC-2, 5', concentration 2.5 (unit not given)",25%
same,% inhibition Apo pol 5',"DRC-2, 5', concentration 10 (unit not given)",38%
same,% inhibition Apo pol 5',"DRC-2, 5', concentration 20 (unit not given)",38%
same,% inhibition Apo pol 5',"DRC-2, 5', concentration 40 (unit not given)",34%
same,% inhibition Apol 40',"DRC-2, 40', concentration 2.5 (unit not given)",34%
same,% inhibition Apol 40',"DRC-2, 40', concentration 10 (unit not given)",54%
same,% inhibition Apol 40',"DRC-2, 40', concentration 40 (unit not given)",61%
same,% inhibition ApPOL 90',"DRC-2, 90', concentration 5 (unit not given)",25%
same,% inhibition ApPOL 90',"DRC-2, 90', concentration 10 (unit not given)",54%
same,% inhibition apPOL 180',[1],61%
same,% inhibition Apo pol 5',"DRC-2, 5', concentration 2.5",25%
same,% inhibition Apo pol 5',"DRC-2, 5', concentration 5",21%
same,% inhibition Apo pol 5',"DRC-2, 5', concentration 10",38%
same,% inhibition Apo pol 5',"DRC-2, 5', concentration 20",38%
same,% inhibition Apo pol 5',"DRC-2, 5', concentration 40",34%
same,% inhibition Apo pol 5',"DRC-2, 5', concentration 80",-20%
same,% inhibition Apol 40',"DRC-2, 40', concentration 2.5",34%
same,% inhibition Apol 40',"DRC-2, 40', concentration 5",28%
same,% inhibition Apol 40',"DRC-2, 40', concentration 10",54%
same,% inhibition Apol 40',"DRC-2, 40', concentration 20",62%
same,% inhibition Apol 40',"DRC-2, 40', concentration 40",61%
same,% inhibition Apol 40',"DRC-2, 40', concentration 80",35%
same,% inhibition ApPOL 90',"DRC-2, 90', concentration 2.5",31%
same,% inhibition ApPOL 90',"DRC-2, 90', concentration 5",25%
same,% inhibition ApPOL 90',"DRC-2, 90', concentration 10",54%
same,% inhibition ApPOL 90',"DRC-2, 90', concentration 20",64%
same,% inhibition ApPOL 90',"DRC-2, 90', concentration 40",66%
same,% inhibition ApPOL 90',"DRC-2, 90', concentration 80",47%
same,% inhibition apPOL 180',"DRC-2, 180', concentration 2.5",22%
same,% inhibition apPOL 180',"DRC-2, 180', concentration 5",13%
same,% inhibition apPOL 180',"DRC-2, 180', concentration 10",44%
same,% inhibition apPOL 180',"DRC-2, 180', concentration 20",61%
same,% inhibition apPOL 180',"DRC-2, 180', concentration 40",67%
same,% inhibition apPOL 180',"DRC-2, 180', concentration 80",59%
same,DNA Pol,"primary screen value of the 186 hits, unit not given",42
same,DNA Pol,"primary screen value, head ""DNA Pol"", unit not given",42
"Cc1cc(C)c2c(c1)C1C=CCC1C(c1ccc(C(=O)O)cc1)N2 (stereo not shown) [Molecule 102, Cc1cc(C)c2c(c1)C1C=CCC1C(N2)c1ccc(cc1)C(=O)O]",DNA Pol,"'DNA Pol' of the 186 hits list (screen value), 90 min, 10 µM",60
same,% inhibition Apo pol 10',"DRC-1, conc 2.5",46.2676%
same,% inhibition Apo pol 10',"DRC-1, conc 5",62.6778%
same,% inhibition Apo pol 10',"DRC-1, conc 10",76.4739%
same,% inhibition Apo pol 10',"DRC-1, conc 20",82.8067%
same,% inhibition Apo pol 10',"DRC-1, conc 40",91.6956%
same,% inhibition Apo pol 10',"DRC-1, conc 80",93.5405%
same,% inhibition Apol 90',"DRC-1, 90', conc 2.5",14.3309%
same,% inhibition Apol 90',"DRC-1, 90', conc 5",28.3959%
same,% inhibition Apol 90',"DRC-1, 90', conc 10",47.4171%
same,% inhibition Apol 90',"DRC-1, 90', conc 20",62.2374%
same,% inhibition Apol 90',"DRC-1, 90', conc 40",86.2676%
same,% inhibition Apol 90',"DRC-1, 90', conc 80",94.9161%
same,% inhibition apPOL 180',"DRC-1, 180', conc 2.5",1.778%
same,% inhibition apPOL 180',"DRC-1, 180', conc 5",12.6672%
same,% inhibition apPOL 180',"DRC-1, 180', conc 10",32.4501%
same,% inhibition apPOL 180',"DRC-1, 180', conc 20",53.0918%
same,% inhibition apPOL 180',"DRC-1, 180', conc 40",83.5057%
same,% inhibition apPOL 180',"DRC-1, 180', conc 80",95.0431%
same,% inhibition Apo pol 5',"DRC-2, 5', conc 2.5",40%
same,% inhibition Apo pol 5',"DRC-2, 5', conc 5",51%
same,% inhibition Apo pol 5',"DRC-2, 5', conc 10",55%
same,% inhibition Apo pol 5',"DRC-2, 5', conc 20",58%
same,% inhibition Apo pol 5',"DRC-2, 5', conc 40",59%
same,% inhibition Apo pol 5',"DRC-2, 5', conc 80",58%
same,% inhibition Apo pol 5',"DRC-2, 5', concentration 2.5",40%
same,% inhibition Apo pol 5',"DRC-2, 5', concentration 20",58%
same,% inhibition Apo pol 5',"DRC-2, 5', concentration 40",59%
same,% inhibition Apo pol 5',"DRC-2, 5', concentration 80",58%
same,% inhibition Apol 40',"DRC-2, 40', conc 2.5",34%
same,% inhibition Apol 40',"DRC-2, 40', conc 5",50%
same,% inhibition Apol 40',"DRC-2, 40', conc 10",59%
same,% inhibition Apol 40',"DRC-2, 40', conc 20",71%
same,% inhibition Apol 40',"DRC-2, 40', conc 40",76%
same,% inhibition Apol 40',"DRC-2, 40', conc 80",75%
same,% inhibition Apol 40',"DRC-2, 40', concentration 10",59%
same,% inhibition Apol 40',"DRC-2, 40', concentration 80",75%
same,% inhibition ApPOL 90',"DRC-2, 90', conc 2.5",28%
same,% inhibition ApPOL 90',"DRC-2, 90', conc 5",47%
same,% inhibition ApPOL 90',"DRC-2, 90', conc 10",58%
same,% inhibition ApPOL 90',"DRC-2, 90', conc 20",73%
same,% inhibition ApPOL 90',"DRC-2, 90', conc 40",80%
same,% inhibition ApPOL 90',"DRC-2, 90', conc 80",79%
same,% inhibition ApPOL 90',"DRC-2, 90', concentration 10",58%
same,% inhibition apPOL 180',"DRC-2, 180', conc 2.5",19%
same,% inhibition apPOL 180',"DRC-2, 180', conc 5",40%
same,% inhibition apPOL 180',"DRC-2, 180', conc 10",54%
same,% inhibition apPOL 180',"DRC-2, 180', conc 20",75%
same,% inhibition apPOL 180',"DRC-2, 180', conc 40",83%
same,% inhibition apPOL 180',"DRC-2, 180', conc 80",83%
same,% inhibition apPOL 180',"DRC-2, 180', concentration 5",40%
same,% inhibition apPOL 180',"DRC-2, 180', concentration 20",75%
same,% inhibition apPOL 180',"DRC-2, 180', concentration 40",83%
same,% inhibition apPOL 180',"DRC-2, 180', concentration 80",83%
same,DNA Pol,"primary screen value, ""DNA Pol"", 90 min, 10 µM",60
